According to patent publication US20230416225A1, “DIAMINOPYRIMIDINE CARBOXAMIDE INHIBITORS OF HPK1” (MERCK SHARP & DOHME LLC, priority 2020, published 2023):

Target: T1, Human HPK1, catalytic domain (Homo sapiens, UniProt Q92918)
T1 construct: purchased Carna
T1 sequence (Q92918 1-346): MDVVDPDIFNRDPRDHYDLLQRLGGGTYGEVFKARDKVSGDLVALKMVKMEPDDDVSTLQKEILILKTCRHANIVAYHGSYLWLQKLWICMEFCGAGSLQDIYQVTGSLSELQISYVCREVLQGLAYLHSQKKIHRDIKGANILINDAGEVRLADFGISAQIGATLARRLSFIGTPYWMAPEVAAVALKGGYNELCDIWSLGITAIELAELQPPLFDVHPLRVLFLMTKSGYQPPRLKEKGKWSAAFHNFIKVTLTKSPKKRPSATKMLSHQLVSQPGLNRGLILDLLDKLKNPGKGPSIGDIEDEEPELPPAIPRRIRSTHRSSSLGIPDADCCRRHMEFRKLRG
Assay: HPK1-SLP76 TR-FRET assay
Type: biochemical
Details: 75 pM HPK1, 10 uM ATP, 10 nM SLP76, 30 min compound pre-incubation

Point of comparison: `COc1cc2c(cc1Nc1ncc(C(N)=O)c(Nc3ccccc3C(=O)Nc3ccccc3)n1)CN(C)CC2` [Example 7-117, 2-((6-methoxy-2-methyl-1,2,3,4-tetrahydroisoquinolin-7-yl)amino)-4-((2-(phenylcarbamoyl)phenyl)amino) pyrimidine-5-carboxamide], IC50 54.8 nM. Against it:
- NC(=O)c1cnc(Nc2ccc(C(F)(F)F)cc2)nc1Nc1cccc2c1CCNC2=O [Example 25-7, 4-[(1-oxo-1,2,3,4-tetrahydroisoquinolin-5-yl)amino]-2-{[4-(trifluoromethyl)phenyl]amino}pyrimidine-5-carboxamide] — 8.6-fold higher, 474 nM
- NC(=O)c1cnc(Nc2ccc(CC(F)(F)F)cc2)nc1Nc1cccc2c1CCNC2=O [Example 25-44, 4-[(1-oxo-1,2,3,4-tetrahydroisoquinolin-5-yl)amino]-2-{[4-(2,2,2-trifluoroethyl)phenyl]amino}pyrimidine-5-carboxamide] — 28-fold lower, 1.95 nM
- COc1cc(C2CCNCC2)ccc1Nc1ncc(C(N)=O)c(Nc2ccccc2C(F)(F)F)n1 [Example 8-2, 2-((2-methoxy-4-(piperidin-4-yl)phenyl)amino)-4-((2-(trifluoromethyl)phenyl)amino)pyrimidine-5-carboxamide] — 4.7-fold lower, 11.7 nM
- COc1cc2c(cc1Nc1ncc(C(N)=O)c(Nc3ccccc3SC(F)(F)F)n1)CN(C)CC2 [Example 7-113, 2-[(6-methoxy-2-methyl-1,2,3,4-tetrahydroisoquinolin-7-yl)amino]-4-({2-[(trifluoromethyl)sulfanyl]phenyl}amino)pyrimidine-5-carobxamide] — 420-fold lower, 0.13 nM
- COc1cc2c(cc1Nc1ncc(C(N)=O)c(Nc3cccc(CN)c3)n1)CN(C)CC2 [Example 2-2, 4-{[3-(aminomethyl)phenyl]-amino}-2-[(6-methoxy-2-methyl-1,2,3,4-tetrahydroisoquinolin-7-yl)amino]pyrimidine-5-carboxamide] — 160-fold lower, 0.34 nM
- CC(C)(C)c1ccc(Nc2ncc(C(N)=O)c(Nc3cccc4c3CCNC4=O)n2)cc1 [Example 25-35, 2-[(4-tert-butylphenyl)amino]-4-[(1-oxo-1,2,3,4-tetrahydroisoquinolin-5-yl)amino]pyrimidine-5-carboxamide] — 180-fold lower, 0.3 nM
- COc1cc(C(=O)N2CCC(N(C)C)C2)ccc1Nc1ncc(C(N)=O)c(Nc2ccccc2C(F)(F)F)n1 (stereo not drawn) [Example 11-2, 2-((4-(3-(dimethylamino)pyrrolidine-1-carbonyl)-2-methoxyphenyl)amino)-4-((2-(trifluoromethyl)phenyl)amino)pyrimidine-5-carboxamide] — 3.6-fold higher, 199 nM
- COc1cc2c(cc1Nc1ncc(C(N)=O)c(Nc3ccccc3Br)n1)CN(C(=O)CC(F)(F)F)CC2 [Example 12-11, 4-[(2-bromophenyl)amino]-2-{[6-methoxy-2-(3,3,3-trifluoropropanoyl)-1,2,3,4-tetrahydroisoquinolin-7-yl]amino}pyrimidine-5-carboxamide] — 4.9-fold lower, 11.1 nM
- COc1cc2c(cc1Nc1ncc(C(N)=O)c(Nc3ccccc3C(F)(F)F)n1)C(C1CC1)N(C)CC2 (single isomer, unassigned) [Example 20-1, 2-((1-cyclopropyl-6-methoxy-2-methyl-1,2,3,4-tetrahydroisoquinolin-7-yl)amino)-4-((2-(trifluoromethyl)phenyl)amino)pyrimidine-5-carboxamide] — 34-fold lower, 1.62 nM
- COc1cc2c(cc1Nc1ncc(C(N)=O)c(Nc3cccc(CNC(=O)OC(C)(C)C)c3)n1)CN(C)CC2 [Example 2-1, tert-butyl {[3-({5-carbamoyl-2-[(6-methoxy-2-methyl-1,2,3,4-tetrahydroisoquinolin-7-yl)amino]pyrimidin-4-yl}amino)phenylmethyl} carbamate] — 34-fold lower, 1.59 nM
- COc1cc2c(cc1Nc1ncc(C(N)=O)c(N[C@H]3CC[C@@H](N)CC3)n1)CN(C)CC2 [Example 26-5, 4-[(cis-4-aminocyclohexyl)amino]-2-[(6-methoxy-2-methyl-1,2,3,4-tetrahydroisoquinolin-7-yl)amino]pyrimidine-5-carboxamide] — 5.6-fold lower, 9.79 nM
- NC(=O)c1cnc(Nc2cnn(C3CCNCC3)c2)nc1Nc1cccc2c1CCNC2=O [Example 7-52, 4-[(1-oxo-1,2,3,4-tetrahydroisoquinolin-5-yl)amino]-2-{[1-(piperidin-4-yl)-1H-pyrazol-4-yl]amino}pyrimidine-5-carboxamide] — 100-fold lower, 0.55 nM
- NC(=O)c1cnc(Nc2ccc(F)c(Cl)c2)nc1Nc1cccc2c1CCNC2=O [Example 25-6, 2-[(3-chloro-4-fluorophenyl)amino]-4-[(1-oxo-1,2,3,4-tetrahydroisoquinolin-5-yl)amino]pyrimidine-S-carboxamide] — 11-fold higher, 580 nM
- C=CCCCN1CCc2cc(OC)c(Nc3ncc(C(N)=O)c(Nc4c(F)cc(Br)cc4F)n3)cc2C1 [Example 10-4, 4-(4-bromo-2,6-difluoroanilino)-2-{[6-methoxy-2-(pent-4-en-1-yl)-1,2,3,4-tetrahydroisoquinolin-7-yl]amino}pyrimidine-5-carboxamide] — within 1.5-fold, 67.1 nM
- COc1cc2c(cc1Nc1ncc(C(N)=O)c(Nc3cccc(Br)c3)n1)CN(C)CC2 [Example 7-71, 4-[(3-bromophenyl)amino]-2-[(6-methoxy-2-methyl-1,2,3,4-tetrahydroisoquinolin-7-yl)amino]pyrimidine-5-carboxamide] — 37-fold lower, 1.49 nM
- COc1cc2c(cc1Nc1ncc(C(N)=O)c(Nc3ccnn3C)n1)CN(C)CC2 [Example 7-88, 2-((6-methoxy-2-methyl-1,2,3,4-tetrahydroisoquinolin-7-yl)amino)-4-((1-methyl-1H-pyrazol-5-yl)amino)pyrimidine-5-carboxamide] — 6-fold lower, 9.16 nM
- COC(=O)c1ccccc1Nc1nc(Nc2cc3c(cc2OC)CCN(C)C3)ncc1C(N)=O [Example 7-94, methyl 2-({5-carbamoyl-2-[(6-methoxy-2-methyl-1,2,3,4-tetrahydroisoquinolin-7-yl)amino]pyrimidin-4-yl}amino)benzoate] — 62-fold lower, 0.88 nM
- COc1cc2c(cc1Nc1ncc(C(N)=O)c(Nc3ccccc3Br)n1)CN(C(=O)C1(C(F)(F)F)CCC1)CC2 [Example 12-6, 4-[(2-bromophenyl)amino]-2-({6-methoxy-2-[1-(trifluoromethyl)cyclobutane-1-carbonyl]-1,2,3,4-tetrahydroisoquinolin-7-yl}amino)pyrimidine-5-carboxamide] — 2-fold lower, 27.7 nM
- COc1cc2c(cc1Nc1ncc(C(N)=O)c(NCc3cccc(F)c3F)n1)CN(C)CC2 [Example 26-9, 4-{[(2,3-difluorophenyl)methyl]amino}-2-[(6-methoxy-2-methyl-1,2,3,4-tetrahydroisoquinolin-7-yl)amino]pyrimidine-5-carboxamide] — 58-fold lower, 0.95 nM
- CCc1ccccc1Nc1nc(Nc2cc3c(cc2OC)CCN(C)C3)ncc1C(N)=O [Example 4-27] — 680-fold lower, 0.08 nM
- COc1cc2c(cc1Nc1ncc(C(N)=O)c(Nc3ccccc3CC3(F)COC3)n1)CN(C)CC2 [Example 13-4, 4-({2-[(3-fluorooxetan-3-yl)methyl]phenyl}amino)-2-[(6-methoxy-2-methyl-1,2,3,4-tetrahydroisoquinolin-7-yl)amino]pyrimidine-5-carboxamide] — 83-fold lower, 0.66 nM
- COc1cc2c(cc1Nc1ncc(C(N)=O)c(N[C@H]3c4ccccc4C[C@H]3O)n1)CN(C)CC2 [Example 26-63, 4-{[(1S,2R)-2-hydroxy-2,3-dihydro-1H-inden-1-yl]amino}-2-[(6-methoxy-2-methyl-1,2,3,4-tetrahydroisoquinolin-7-yl)amino]pyrimidine-5-carboxamide] — 2-fold higher, 109 nM
- CCOc1ccccc1CNc1nc(Nc2cc3c(cc2OC)CCN(C)C3)ncc1C(N)=O [Example 26-23, 4-{[(2-ethoxyphenyl)methyl]amino}-2-[(6-methoxy-2-methyl-1,2,3,4-tetrahydroisoquinolin-7-yl)amino]pyrimidine-5-carboxamide] — 15-fold lower, 3.69 nM
- Cn1cc(Nc2ncc(C(N)=O)c(Nc3cccc4c3CCNC4)n2)cn1 [Example 7-12, 2-[(1-methyl-1H-pyrazol-4-yl)amino]-4-[(1,2,3,4-tetrahydroisoquinolin-5-yl)amino]pyrimidine-5-carboxamide] — 29-fold lower, 1.86 nM
- COc1cc2c(cc1Nc1ncc(C(N)=O)c(NC3CCCCC3)n1)CN(C)CC2 [Example 26-2, 4-(cyclohexylamino)-2-[(6-methoxy-2-methyl-1,2,3,4-tetrahydroisoquinolin-7-yl)amino]pyrimidine-5-carboxamide] — 91-fold lower, 0.6 nM
- C#CC[C@H]1CCC[C@H]1Nc1nc(Nc2cc3c(cc2OC)CCN(C)C3)ncc1C(N)=O [Example 26-40, 2-[(6-methoxy-2-methyl-1,2,3,4-tetrahydroisoquinolin-7-yl)amino]-4-{[(1R,2R)-2-(prop-2-yn-1-yl)cyclopentyl]amino}pyrimidine-5-carboxamide] — 26-fold lower, 2.08 nM
- Cc1cccc(Nc2ncc(C(N)=O)c(Nc3cccc4c3CCNC4=O)n2)c1C [Example 25-11, 2-[(2,3-dimethylphenyl)amino]-4-[(1-oxo-1,2,3,4-tetrahydroisoquinolin-5-yl)amino]pyrimidine-5-carboxamide] — within 1.5-fold, 71 nM
- NC(=O)c1cnc(Nc2cnn(C3CCC3)c2)nc1Nc1cccc2c1CCNC2=O [Example 7-51, 2-[(1-cyclobutyl-1H-pyrazol-4-yl)amino]-4-[(1-oxo-1,2,3,4-tetrahydroisoquinolin-5-yl)amino]pyrimidine-5-carboxamide] — 13-fold lower, 4.21 nM
- COc1cc2c(cc1Nc1ncc(C(N)=O)c(Nc3cn(C)nc3C3CC3)n1)CN(C)CC2 [Example 7-81, 4-((3-cyclopropyl-1-methyl-1H-pyrazol-4-yl)amino)-2-((6-methoxy-2-methyl-1,2,3,4-tetrahydroisoquinolin-7-yl)amino)pyrimidine-5-carboxamide] — 18-fold lower, 3.08 nM
